Here are results for 11 compounds from patent publication US8791303B2, “Herbicides” (Syngenta Limited, priority 2009, dated 2014).

Usually melting point stands for the temperature, or range, at which the solid turns liquid.

The subject of data set [1] is Echinochloa crus-galli (ECHCG). The experiment in a line: Example A glasshouse herbicide test, pre-emergence, ECHCG. It counts as in vivo. The following applies: Echinochloa crus-galli, pre-emergence, 312 h, Rate 250 g/ha, sprayed after cultivation for one day, evaluated after 13 days, read-out: Pre-Emergence Activity ECHCG (100=total damage to plant; 0=no damage to plant). The essentials:
(§1)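 Glasshouse pots, standard soil; spray at day 1 (pre-em.) or day 8 (post-em.); acetone/water 50:50 + 0.5% Tween 20 vehicle; 24/16° C., 14 h light, 65% RH, watered twice daily; visual damage rating at 13 d, 100 = total damage, 0 = none.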

For data set [2], the system named is Echinochloa crus-galli (ECHCG). The experiment in a line: Example A glasshouse herbicide test, post-emergence, ECHCG. The conditions noted are these: Echinochloa crus-galli, post-emergence, 312 h, Rate 250 g/ha, sprayed after 8 days cultivation, evaluated after 13 days, read-out: Post-Emergence Activity ECHCG (100=total damage to plant; 0=no damage to plant). It counts as in vivo. The essentials: as §1

In data set [3] the test system is Avena fatua (AVEFA). The experiment in a line: Example A glasshouse herbicide test, post-emergence, AVEFA. The following applies: Avena fatua, post-emergence, 312 h, Rate 250 g/ha, sprayed after 8 days cultivation, evaluated after 13 days, read-out: Post-Emergence Activity AVEFA (100=total damage to plant; 0=no damage to plant). The format is in vivo. The essentials: as §1

In data set [4] the test system is Alopecurus myosuroides (ALOMY). The experiment in a line: Example A glasshouse herbicide test, pre-emergence, ALOMY. The format is in vivo. The conditions noted are these: Alopecurus myosuroides, pre-emergence, 312 h, Rate 250 g/ha, sprayed after cultivation for one day, evaluated after 13 days, read-out: Pre-Emergence Activity ALOMY (100=total damage to plant; 0=no damage to plant). The essentials: as §1

The test system of data set [5] is Winter Wheat variety 'Hereward'. The experiment in a line: Example B crop damage test, post-emergence, wheat seed treated with safener cloquintocet mexyl. The format is in vivo. The following applies: Rate 250 g/ha; post-emergence spray 8 days after sowing; seed treated with cloquintocet mexyl 0.5 g/kg dry seed; evaluated after 13 days. How it is done: Seeds of the Winter Wheat variety ‘Hereward’ were seed treated with a wettable powder formulation of the cereal herbicide safener, cloquintocet mexyl, at a rate of 0.5 grams per kilogram of dry seed prior to the initiation of glasshouse testing. One seed was sown per 1.5 inch plastic pot into a sandy loam soil at a depth of 1 cm, 8 days prior to application of the test compounds and was watered and grown under controlled conditions in a glasshouse (at 24/16° C., day/night; 14 hours light; 65% humidity). The plants were sprayed post-emergence with an aqueous spray solution derived from the formulation of the technical active ingredient in acetone/water (50:50) solution containing 0.5% Tween 20 (polyoxyethelyene sorbitan monolaurate, CAS RN 9005-64-5).
(§2) The test plants were then grown in a glasshouse under controlled conditions in a glasshouse (at 24/16° C., day/night; 14 hours light; 65% humidity) and watered twice daily. After 13 days for pre and post-emergence, the test was evaluated (100=total damage to plant; 0=no damage to plant).

In data set [6] the test system is Alopecurus myosuroides (ALOMY). The experiment in a line: Example A glasshouse herbicide test, post-emergence, ALOMY. It counts as in vivo. The following applies: Alopecurus myosuroides, post-emergence, 312 h, Rate 250 g/ha, sprayed after 8 days cultivation, evaluated after 13 days, read-out: Post-Emergence Activity ALOMY (100=total damage to plant; 0=no damage to plant). The essentials: as §1

The test system of data set [7] is Avena fatua (AVEFA). Nature of the data set: Example A glasshouse herbicide test, pre-emergence, AVEFA. The following applies: Avena fatua, pre-emergence, 312 h, Rate 250 g/ha, sprayed after cultivation for one day, evaluated after 13 days, read-out: Pre-Emergence Activity AVEFA (100=total damage to plant; 0=no damage to plant). The format is in vivo. The essentials:
as §1

The test system of data set [8] is Winter Wheat variety 'Hereward'. Nature of the data set: Example B crop damage test, post-emergence, unsafened wheat. The format is in vivo. The conditions noted are these: Rate 250 g/ha; post-emergence spray after 8 days cultivation; no safener; evaluated after 13 days. As to the method: Seeds of the Winter Wheat variety ‘Hereward’ were sown in standard soil in pots. After 8 days cultivation under controlled conditions in a glasshouse (at 24/16° C., day/night; 14 hours light; 65% humidity), the plants were sprayed post-emergence with an aqueous spray solution derived from the formulation of the technical active ingredient in acetone/water (50:50) solution containing 0.5% Tween 20 (polyoxyethelyene sorbitan monolaurate, CAS RN 9005-64-5).
as §2

Data set [9] concerns Lolium perenne (LOLPE). The experiment in a line: Example A glasshouse herbicide test, post-emergence, LOLPE. The conditions noted are these: Lolium perenne, post-emergence, 312 h, Rate 250 g/ha, sprayed after 8 days cultivation, evaluated after 13 days, read-out: Post-Emergence Activity LOLPE (100=total damage to plant; 0=no damage to plant). The format is in vivo. The essentials: as §1

Data set [10] deals with Lolium perenne (LOLPE). The experiment in a line: Example A glasshouse herbicide test, pre-emergence, LOLPE. It counts as in vivo. The following applies: Lolium perenne, pre-emergence, 312 h, Rate 250 g/ha, sprayed after cultivation for one day, evaluated after 13 days, read-out: Pre-Emergence Activity LOLPE (100=total damage to plant; 0=no damage to plant). The essentials: as §1

As for `Cc1cc(C)c(C2C(=O)CC(Cc3ccc(F)cc3)C2=O)c(C)c1` (centres unmarked) [Compound A12], the melting point lay in the range of 183.1 to 183.2 °C.

As to `Cc1cc(C)c(C2C(=O)C/C(=C\C3CCCC4CCCCC34)C2=O)c(C)c1` (centres unmarked) [Compound A31], the pest or weed control at 250 g/ha in [1] was found to be 90%; in [2], 80%; with Avena fatua (AVEFA) [3] it was 20%; in data set [4], 40%; in data set [6], 20%; in the data set on Avena fatua (AVEFA) [7], 20%. Besides, the figures for the pest or weed control at 250 g/ha in the data set on Lolium perenne (LOLPE) [9] and in the data set with Lolium perenne (LOLPE) [10] were 70% and 90%, respectively. Moreover, the “Winter Wheat (Hereward) + cloquintocet mexyl damage (100=total damage to plant; 0=no damage to plant)” value in [5] is recorded as 0. Besides, the “Winter Wheat (Hereward) damage (100=total damage to plant; 0=no damage to plant)” value in data set [8] came out at 20.

As to `Cc1cc(C)c(C2C(=O)CC(CC3CCCC(C)C3)C2=O)c(C)c1` (centres unmarked) [Compound A32], the pest or weed control at 250 g/ha in data set [1] came out at 100%; in [2], 100%; in the data set on Avena fatua (AVEFA) [3], 90%; in data set [4], 70%; in [6], 70%; in the data set with Avena fatua (AVEFA) [7] it was 50%. In addition, the pest or weed control at 250 g/ha was found to be 100% in the data set on Lolium perenne (LOLPE) [9] and 90% with Lolium perenne (LOLPE) [10]. Further, in [5], the “Winter Wheat (Hereward) + cloquintocet mexyl damage (100=total damage to plant; 0=no damage to plant)” value is recorded as 0. Further, the “Winter Wheat (Hereward) damage (100=total damage to plant; 0=no damage to plant)” value in data set [8] is recorded as 30.

`Cc1cc(C)c(C2C(=O)CC(CC3CCC(C)CC3)C2=O)c(C)c1` (centres unmarked) [Compound A33]: the pest or weed control at 250 g/ha in data set [1] is 100%; in data set [2], 60%; with Avena fatua (AVEFA) [3], 70%; in data set [4] it was 30%; in data set [6], 30%; with Avena fatua (AVEFA) [7] it was 50%. Further, the pest or weed control at 250 g/ha in the data set on Lolium perenne (LOLPE) [9] came to 100%; in the data set on Lolium perenne (LOLPE) [10], 0%. Besides, the “Winter Wheat (Hereward) + cloquintocet mexyl damage (100=total damage to plant; 0=no damage to plant)” value in data set [5] is reported as 0. In addition, the “Winter Wheat (Hereward) damage (100=total damage to plant; 0=no damage to plant)” value in [8] amounted to 40.

In the case of `Cc1cc(C)c(C2C(=O)CC(CC3CC(C)CCC3C(C)C)C2=O)c(C)c1` (centres unmarked) [Compound A34], the pest or weed control at 250 g/ha was 60% in data set [1]; 10% in data set [2]; 10% in the data set with Avena fatua (AVEFA) [3]; 10% in data set [4]; 20% in data set [6]; 0% in the data set on Avena fatua (AVEFA) [7]. For the same compound, the pest or weed control at 250 g/ha in the data set on Lolium perenne (LOLPE) [9] is 30%; in the data set with Lolium perenne (LOLPE) [10], 0%. The “Winter Wheat (Hereward) + cloquintocet mexyl damage (100=total damage to plant; 0=no damage to plant)” value in data set [5] turned out to be 10. For the same compound, in data set [8], the “Winter Wheat (Hereward) damage (100=total damage to plant; 0=no damage to plant)” value is on record as 20.

`Cc1cc(C)c(C2C(=O)CC(CC3CCCCCC3)C2=O)c(C)c1` (centres unmarked) [Compound A35]: the pest or weed control at 250 g/ha in data set [1] was 100%; in data set [2], 80%; in the data set on Avena fatua (AVEFA) [3], 20%; in data set [4], 50%; in data set [6] it was 50%; in the data set with Avena fatua (AVEFA) [7], 50%. In addition, the pest or weed control at 250 g/ha worked out at 80% in the data set on Lolium perenne (LOLPE) [9] and 30% in the data set with Lolium perenne (LOLPE) [10]. The “Winter Wheat (Hereward) + cloquintocet mexyl damage (100=total damage to plant; 0=no damage to plant)” value in [5] is recorded as 0. In addition, in data set [8], the “Winter Wheat (Hereward) damage (100=total damage to plant; 0=no damage to plant)” value was 20.

Consider `Cc1cc(C)c(C2C(=O)CC(CC3CCCC4CCCCC43)C2=O)c(C)c1` (centres unmarked) [Compound A36], for which the pest or weed control at 250 g/ha was found to be 70% in data set [1]; 70% in [2]; 90% in the data set with Avena fatua (AVEFA) [3]; 70% in data set [4]; 40% in data set [6]; 50% in the data set with Avena fatua (AVEFA) [7]. For the same compound, the pest or weed control at 250 g/ha came to 70% in the data set on Lolium perenne (LOLPE) [9] and 10% in the data set with Lolium perenne (LOLPE) [10]. For the same compound, the “Winter Wheat (Hereward) + cloquintocet mexyl damage (100=total damage to plant; 0=no damage to plant)” value in data set [5] is 0. In addition, the “Winter Wheat (Hereward) damage (100=total damage to plant; 0=no damage to plant)” value in data set [8] came out at 20.

Take `COC1CCC(CC2CC(=O)C(c3c(C)cc(C)cc3C)C2=O)CC1` (centres unmarked) [Compound A38, 4-(4-Methoxy-cyclohexylmethyl)-2-(2,4,6-trimethyl-phenyl)-cyclopentane-1,3-dione]: the pest or weed control at 250 g/ha in [1] is 100%; in data set [2], 100%; with Avena fatua (AVEFA) [3], 100%; in data set [4], 90%; in [6], 100%; in the data set on Avena fatua (AVEFA) [7] it was 60%. In addition, the pest or weed control at 250 g/ha in the data set with Lolium perenne (LOLPE) [9] and with Lolium perenne (LOLPE) [10] was 100% in each case. Besides, the “Winter Wheat (Hereward) + cloquintocet mexyl damage (100=total damage to plant; 0=no damage to plant)” value in data set [5] is recorded as 50. In addition, the “Winter Wheat (Hereward) damage (100=total damage to plant; 0=no damage to plant)” value in data set [8] was 70.

Turning to `Cc1cc(C)c(C2=C(OC(=O)C(C)(C)C)C/C(=C\C3CCCCC3)C2=O)c(C)c1` [Compound B1], the pest or weed control at 250 g/ha in data set [1] was 100%; in data set [2], 30%; in the data set on Avena fatua (AVEFA) [3] it was 10%; in [4] it was 70%; in data set [6], 50%; with Avena fatua (AVEFA) [7] it was 20%. Moreover, the values for the pest or weed control at 250 g/ha in the data set with Lolium perenne (LOLPE) [9] and with Lolium perenne (LOLPE) [10] were 70% and 80%, respectively. The “Winter Wheat (Hereward) + cloquintocet mexyl damage (100=total damage to plant; 0=no damage to plant)” value in data set [5] was 0. The “Winter Wheat (Hereward) damage (100=total damage to plant; 0=no damage to plant)” value in [8] turned out to be 10.

For the compound `Cc1cc(C)c(C2=C(OC(=O)C(C)(C)C)CC(CC3CCCCC3)C2=O)c(C)c1` (centres unmarked) [Compound B2], the pest or weed control at 250 g/ha in data set [1] came out at 100%; in [2], 60%; with Avena fatua (AVEFA) [3] it was 80%; in [4] it was 30%; in [6], 80%; with Avena fatua (AVEFA) [7], 0%. Moreover, the pest or weed control at 250 g/ha in the data set with Lolium perenne (LOLPE) [9] was found to be 90%; in the data set on Lolium perenne (LOLPE) [10] it was 100%. The “Winter Wheat (Hereward) + cloquintocet mexyl damage (100=total damage to plant; 0=no damage to plant)” value in data set [5] is reported as 0. Further, in data set [8], the “Winter Wheat (Hereward) damage (100=total damage to plant; 0=no damage to plant)” value came out at 70.

For the compound `Cc1cc(C)c(C2=C(OC(=O)C(C)(C)C)C(CC3CCC(=O)CC3)CC2=O)c(C)c1` (centres unmarked) [Compound B3], the pest or weed control at 250 g/ha is 50% in [1]; 90% in [2]; 90% in the data set with Avena fatua (AVEFA) [3]; 70% in data set [4]; 70% in data set [6]; 50% with Avena fatua (AVEFA) [7]. The pest or weed control at 250 g/ha in the data set on Lolium perenne (LOLPE) [9] and in the data set on Lolium perenne (LOLPE) [10] was 90% throughout. Moreover, the “Winter Wheat (Hereward) + cloquintocet mexyl damage (100=total damage to plant; 0=no damage to plant)” value in [5] was determined as 30. In addition, the “Winter Wheat (Hereward) damage (100=total damage to plant; 0=no damage to plant)” value in [8] came to 40.
